This is an account of results in US20130085469A1, “TAUROLIDINE FORMULATIONS AND DELIVERY: THERAPEUTIC TREATMENTS AND ANTIMICROBIAL PROTECTION AGAINST BACTERIAL BIOFILM FORMATION” (priority 2004, published 2013).

Read-outs that look alike come from different tables or passages of the source.

By half-life is commonly meant the time needed for the level to fall by half in the phase considered. A low value points to rapid decline.

Data set [1] concerns typical bacteria. The data set can be described thus: Minimum bactericidal concentration (MBC). The format is cell-based.
Data set [2] in a line: Pharmacokinetics, central blood values after IV dose. It counts as in vivo. The note with it: human, corresponds to first time constant 0.3. The source says: (§1) FIG. 1 illustrates the clearance of a typical antibiotic in the blood stream. It is a typical power decay curve after drug administration. Table 3 lists important variables which determine the biocidal effect on bacteria in the blood stream. The 5 factors in the upper portion of the table define the characteristics for Vancomycin, a typical antibiotic, and the characteristics for Taurolidine. Lower in the table is the portion called Surrogate Markers. These markers are Pharmacokinetic/Pharmacodynamic (PK/PD) values calculated from the concentration profiles in the body for specifics sites and drugs to guide therapy. The derived parameters have been estimated for Vancomycin (see FIG. 1, which is average values defined in the drug label with data obtained from human trials). Taurolidine Markers have been obtained from various literature sources. The Markers are useful in predicting antimicrobial drug efficacy in infection eradication. Of course, the values of the PK/PD parameters must be for the specific bacteria causing the infection and for the specific body site.
Kinetic parameters from Steinbach et al.^28 and infusion data from Willatts et al.^27 were used for the calculation. Taurolidine diffuses rapidly and body water concentration is equivalent to the plasma water concentration. […]

Data set [3] is described as follows: Diffusion through silicone rubber catheter wall. It counts as physicochemical. The note with it: silicone rubber 2 mm ID, 0.5 mm wall, filled with water, 2% Taurolidine bath, UV-Vis. The procedure:
4. Taurolidine is a small molecule able to pass through human skin as well as through polymeric materials passively by diffusion which is driven by a concentration gradient. Experiments were conducted to determine if Taurolidine is able to diffuse through silicone rubber at a rate sufficient to achieve clinical significance. The experiment was conducted with a HD catheter-sized silicone rubber (i.e., 2 mm ID and 0.5 mm wall thickness). This was filled with water and capped off. It was immersed in a 2% Taurolidine bath. Within 3 days the inner volume equilibrated with the Taurolidine bath. The sensing instrument was a UV-Vis spectrometer.

Data set [4] deals with bacteria. The settings on record: cited from earlier work.
For data set [5], the system named is typical bacteria. The note with it: cited from earlier work.
Data set [6] relates to Planktonic form of bacteria. The note with it: cited from earlier work.
The conditions of data set [7]: cited from earlier work.
For data set [8] the following is noted: cited from earlier work. The source holds these as a separate data set.
The conditions of data set [9]: in vivo; cited from earlier work.
Data set [10] deals with infection from HD catheters. The note with it: 2 controlled studies; cited from earlier work.
Data set [11] relates to resistant Burkholderia cepacia. The settings on record: isolates from adult cystic fibrosis patients; cited from earlier work.
The next data set concerns Burkholderia cepacia. The settings on record: delivered to the lung via a nebulizer; cited from earlier work.
For data set [12] the following is noted: 30 g/day infused; cited from earlier work.
The conditions of data set [13]: over several years at room temperature; cited from earlier work.
Data set [14] deals with clinically significant bacterial strains and some important fungi. The settings on record: published test results; cited from earlier work.
For data set [15], the system named is bacteria. The note with it: 25 years of clinical use and many in-vitro tests; cited from earlier work.
The nature of data set [16]: Max tolerated dose and max potential delivery. The format is in vivo. The note with it: calculated in footnote a.
Text: as §1

Turning to `O=S1(=O)CCN(CN2CCS(=O)(=O)NC2)CN1` [Taurolidine, 4,4′ Methlyen-bis(tetrahydro-2H-1,4-thiadiazin-1,1dioxide)], the “MBC relative to antibiotics” value with typical bacteria [1] is recorded as “Taurolidine has an approximate 1000 times higher”. Further, in data set [2], the half-life was ~2.3 h. Further, the “time for inner volume to equilibrate with the Taurolidine bath” value in data set [3] was ≤ 3 days. Also, in the data set on bacteria [4], the “concentration needed to show minimum effectiveness” value is recorded as > 0.05% and the “lower end range for MIC” value is reported as “approximately 0.5 mg/mL”. Besides, in the data set with typical bacteria [5], the MBC entry is reported as “MBC than antibiotics. (i.e., MBC of 2 mg/ml vs. 2 ug/ml”. Also, the “exposure to achieve killing action” value in data set [6] was “Planktonic form of bacteria requires approximately 2 hours”. For the same molecule, the “Peak Plasma Concentration (CP)” value in data set [7] (cell adds: Not applicable for Taurolidine) is given as 150 μg/ml^28. In addition, the “T1/2 (Drug Half Life in Blood)” value in [7] (first value of 70/140, footnote b, time const 0.57) was ~70 min. Moreover, in data set [7] (second value of 70/140, footnote b, first time constant 0.3), the “T1/2 (Drug Half Life in Blood)” value was ~140 min. In data set [8], the “Max Tolerated Dose” value was >30 g/day^27. Also, in data set [9], the “concentration producing pain in most tissue on contact” value is ≥ 10000 µg/mL and the “pain on direct contact with most tissue” value is recorded as “Direct contact with most tissue causes intense pain”. The “reduction in infection compared to conventional heparin lock” value in [10] is listed as ~2 controlled studies resulted in approximately 95%. In addition, the in vitro response result in data set [11] was “positive response”. Also, the “reduction in bacterial load” value in the data set on Burkholderia cepacia was “failure to achieve a significant reduction in bacterial load in most patients”. In data set [12], the “benefit of Taurolidine infusion in sepsis syndrome” value is listed as “No benefits” and the “decremental effect of Taurolidine infusion” value is recorded as “not shown any statistically significant decremental effect”. Further, the “stability in powder or aqueous solution” value in data set [13] is “Taurolidine in powder or aqueous solution is stable”. In addition, the “broad spectrum antimicrobial effect” value in data set [14] is on record as “Effective against substantially all clinically significant”. In addition, the bacterial resistance in the data set with bacteria [15] was 1. No Bacterial Resistance.

On to `CN[C@H](CC(C)C)C(=O)N[C@H]1C(=O)N[C@@H](CC(N)=O)C(=O)N[C@H]2C(=O)N[C@H]3C(=O)N[C@H](C(=O)N[C@H](C(=O)O)c4cc(O)cc(O)c4-c4cc3ccc4O)[C@H](O)c3ccc(c(Cl)c3)Oc3cc2cc(c3O[C@@H]2O[C@H](CO)[C@@H](O)[C@H](O)[C@H]2O[C@H]2C[C@](C)(N)[C@H](O)[C@H](C)O2)Oc2ccc(cc2Cl)[C@H]1O` [Vancomycin], for which the “Max Tolerated Dose” value in data set [16] is >5 g/day (See footnote a). Moreover, in the data set on bacteria [4], the “MIC (Minimum Inhibitory Concentration)” value is <4 μg/mL^29. In addition, the “Peak Plasma Concentration (CP)” value in [7] (average values from drug label, FIG. 1) is 50 µg/mL. The “T1/2 (Drug Half Life in Blood)” value in data set [7] is ~7 hours^30.
